From US11883430B2, “CD38-NAD+ regulated metabolic axis in anti-tumor immunotherapy” (MUSC FOUNDATION FOR RESEARCH DEVELOPMENT, priority 2016, dated 2024) come the findings set out here.

One series has as its system Foxo1. Briefly: Confocal imaging of Foxo1 localization in Th17 and Th1/17 cells. It counts as cell-based, mouse. Conditions: Th17 and Th1/17 cells programmed with SC-79 0.5 μg/ml (FIG. 13H).
The subject of another series is B16-F10 melanoma. Briefly: Adoptive T cell transfer, s.c. B16-F10 melanoma in C57BL/6 mice, tumor growth. The series is classed as in vivo, mouse. Conditions: TRP-1 Th1/17 differentiated with DON 3 μM vs DMSO, 0.5×10^6 cells (FIG. 3P). The protocol: Adoptive T cell protocol: B16-F10 or B16-F10-A2^+ mouse melanoma tumor cells (2.5×10^6) were injected subcutaneously (s.c.) into left flank of 8-10 weeks old C57BL/6 or HLA-A2^+ (or HLA-A2^+-RAG^−/−) mice respectively. After 9 days of tumor establishment, recipient mice were injected (i.p) with cyclophosphamide (4 mg/mice) before adoptively transferring (i.v) either h3T (CD4^+Vβ12^+) or TRP-1 (CD4^+Vβ14^+) Th1, Th17, Th1/17 cells on day 10. Similarly, Pmel (CD8^+Vβ13^+) and TCR-I (CD8^+Sv40 antigen specific) Tc1, Tc17 and Tc1/17 cells were adoptively transferred (i.v) into either 9 days established B16-F10 tumor bearing mice or TRAMP (spontaneously develop prostate tumor) respectively. For in vivo neutralization of IFNγ and IL17, neutralizing antibody to IFNγ and IL17 or matched isotype antibody was injected (100 μg/mouse; i.p.) in tumor bearing mice following adoptive transfer of T cells. In some experiments, tumor bearing mice received anti-CD38 antibody (50 μg/mouse; i.p.) after adoptive TRP-1 Th0 cells transfer. Recipient mice were given IL2 (50,000 U/mouse; i.p) for 3 consecutive days after ACT.

Series [1] relates to Th1/17 cells. Briefly: Intracellular cytokine (IFNγ, IL17) flow cytometry after PMA and ionomycin. It counts as cell-based, mouse. The text has this:
T cell differentiation: Naïve CD4^+ T cells were purified from the total splenocytes of 6-9 weeks old WT (C57BL/6) and KO (Foxo1^fl/flLck^cre, Sirt1^fl/flCD4^cre, CD38KO) mice using CD4^+ T cell isolation kit (Miltenyi Biotec) according to manufacturer's protocol. Total splenocytes from 6-9 weeks old TCR transgenic mouse TRP-1 (bears class-II restricted CD4^+ T cells) or Pmel (bears class-I restricted CD8^+ T cells) or TCR-I (bears class-I restricted CD8^+ T cells) were also used. Within experiments mice were age and sex matched. Purified naïve CD4^+ T cells or total splenocytes were differentiated to Th1 or Tc1 (10 ng/ml IL12, 50 U/ml IL2 and 10 μg/ml anti-IL4), Th17 or Tc17 (3 ng/ml TGFβ, 25 ng/ml IL6, 10 μg/ml anti-IL4 and 10 μg/ml anti-IFNγ), Th1/17 or Tc1/17 (20 ng/ml IL1β, 25 ng/ml IL6, 10 ng/ml IL12, 20 ng/ml IL23, 400 pg/ml TGFβ, 10 μg/ml anti-IL4, 5 μg/ml anti-IFNγ), iTreg (5 ng/ml TGFβ, 100 IU/ml IL2, 10 μg/ml anti-IL4 and 10 μg/ml anti-IFNγ or Th0 (50 IU/ml IL2) in presence of plate bound anti-CD3 (5 μg/ml) and anti-CD28 (5 μg/ml). For TRP-1, gp100 or Sv40 specific generation of different Th or Tc subsets, total splenocytes from either TRP-1, Pmel or TCR-I TCR transgenic mice were stimulated with 1 μg/ml respective peptides in presence of above-mentioned polarizing conditions. T cells were differentiated for three days in IMDM media supplemented with 10% FCS, 4 mM L-glutamine, 100 U/ml penicillin, 100 μg/ml streptomycin, 55 μM beta-mercaptoethanol under 7% CO2, atmospheric oxygen at 37° C. in a humidified incubator. For evaluation of intracellular cytokines by flow cytometry, T cells were re-stimulated with PMA (500 ng/ml) and Ionomycin (500 ng/ml) for 4 hr in presence of Glogi inhibitors. […]
Flow cytometry: Staining for cell surface markers was performed by incubating cells with antibody at 1:200 dilutions in FACS buffer (0.1% BSA in PBS) for 30 min at 4° C. […] Samples were acquired on LSRFortessa and analysed with FlowJo software (Tree Star, OR).

The test system of series [2] is Th1/17 cells. In words: Viable cells by FACS live/dead dye staining. The series is classed as cell-based, mouse. Particulars: cultured in presence of DON 3 μM; compared to Th1 or Th17 cell (FIG. 11H). On the procedure: FIGS. 11A-11L: Metabolic commitment of Th1, Th17 and Th1/17 cells (see FIGS. 3-4). (A-C) In vitro differentiated murine Th1, Th17 and Th1/17 cells were used for determining: (A) intracellular expression of various glycolytic enzymes, (B) cell surface expression of different amino acid transporters, and (C) intracellular expression of glutaminolytic enzymes by flow cytometry. Data are representative of three independent experiments with similar results. (D) Western blot analysis determined the protein level of various glutamine transporters and glutaminolytic enzymes in in vitro differentiated Th1, Th17 and Th1/17 cells. β-actin was used as a loading control. Data are representative of two independent experiments with similar results. (E-F) Purified CD4^+ T cells were differentiated to Th1, Th17 and Th1/17 cells either in presence or absence of 2DG (1 mM) or DON (3 μM) and characterized for: (E) intracellular cytokine secretion after restimulating them with PMA and ionomycin for 4 hr, (F) determining the frequency of cells that were IFNγ^+, IL17^+ or IFNγ^+IL17^+ in each treatment groups and presented using scatter plot. Statistical comparison between treated and untreated groups are indicated. […] (I) Purified CD4^+ T cells were differentiated into Th1, Th17 and Th1/17 cells and intracellular metabolites were measured using mass spectrometry. […]

Series [3] relates to Th1/17 cells. Briefly: Glutamine uptake assay (radiolabelled glutamine). It counts as cell-based, mouse. Particulars: DON pre-treatment, different conc. (FIG. 3O). On the procedure:
Glutamine uptake assay: Ex vivo programmed Th cell subsets (1×10^6 cells) were starved in glutamine free RPMI-1640 media (Thermo Fisher Scientific, Cat #21870-076) for 15 min before incubated with L-2,3,4-[^3H] glutamine (0.5 mCi, PerkinElmer) for 10 min at room temperature. Cells were lysed in 500 μl of lysis buffer (Sigma-Aldrich, St. Louis, MO) and radioactivity was measured by liquid scintillation.

Another series deals with NAD+. Briefly: Intracellular NAD+ level. The series is classed as cell-based, mouse. Conditions: Th1/17 differentiated with 2DG 1 mM, DON 3 μM or FK866 10 nM (FIGS. 11K, 11L). The protocol:
NAD^+, Sirt1 activity and Foxo1 activity assay: Intracellular NAD^+ level in T cells were measured spectrophotometrically following the manufacturer's protocol (Cayman chemical, Ann Arbor, MI). Using equal amounts of nuclear protein extracted by NE-PER Nuclear and Cytoplasmic Extraction Reagents (Thermo Fisher Scientific, Waltham, MA), Sirt1 activity (Universal Sirt1 Activity Assay Kit, Abcam, Cambridge, MA) and Foxo1 activity (FKHR transcription Factor Assay Kit, Active Motif, Carlsbad, CA) were determined as per manufacturer's protocol.

For series [4], the system named is B16-F10-HLA-A2+ murine melanoma. In words: Adoptive T cell transfer, s.c. B16-F10-HLA-A2+ melanoma, tumor growth. The series is classed as in vivo, mouse. Particulars: Th1/17 differentiated ex vivo with FK866 or Ex527 vs untreated/vehicle (FIGS. 4E, 5F).
The subject of a further series is Th1 cells. In words: Intracellular cytokine (IFNγ, IL17) flow cytometry after PMA and ionomycin. It counts as cell-based, mouse. Conditions: Th1 subsets (FIGS. 12A and 12B). The protocol: FIGS. 12A-12D: Loss of Sirt1 expression and NAD+ levels on Th1/17 cell phenotype and function (see FIG. 5). (A) Purified CD4^+ T cells from C57BL/6 were used to differentiate to Th1/17 cells either alone or in the presence of Ex527, a pharmacological inhibitor of Sirt1. Cells were then restimulated with PMA and ionomycin for 4 hr in presence of golgi block to stain for intracellular accumulation of cytokines IFNγ and IL17. (B) Th1 cells were cultured either in presence or absence of NAD+ inhibitor FK866 (10 nM) and intracellular staining was performed for IFNγ and IL17. Data was acquired using FACS and analysis was carried out using FlowJo software. (C-D) Purified splenic CD4^+ T cells from either C57BL/6 WT or Sirt1fl/flCD4Cre (Sirt1KO) mouse were used to ex vivo program for Th1/17 cells. RNA was prepared and quantitative PCR analysis was performed for the expression of various glycolysis (C) and glutaminolysis (D) associated genes in either WT or Sirt1KO Th1/17 cells. Data in section A-D are representative of three independent experiments.
T cell differentiation: Naïve CD4^+ T cells were purified from the total splenocytes of 6-9 weeks old WT (C57BL/6) and KO (Foxo1^fl/flLck^cre, Sirt1^fl/flCD4^cre, CD38KO) mice using CD4^+ T cell isolation kit (Miltenyi Biotec) according to manufacturer's protocol. […]

Series [5] deals with Th1/17 cells. Briefly: qPCR gene expression in Th1/17 cells. The series is classed as cell-based, mouse. Particulars: Th1/17 differentiated with FK866 10 nM or Ex527 (FIGS. 4D, 5D). The protocol: Real-time quantitative-PCR: Total RNA was extracted from pellets of the indicated T cell subsets (2×10^6 cells) using Trizol reagent (Life technologies, Grand Island, NY). cDNA was generated from 1 μg total RNA using iScript cDNA Synthesis Kit (BioRad, Hercules, CA). SYBR Green incorporation quantitative real-time PCR was performed using a SYBR Green mix (Biorad, Hercules, CA) in the CFX96 Detection System (BioRad, Hercules, CA). Expression of different genes was quantified relative to Actb.

Series [6] has as its system Th1/17 cells. Briefly: Global acetylation of nuclear protein, western blot. The series is classed as cell-based, mouse. Conditions: Nampt inhibitor FK866 treatment (FIG. 6A, FIG. 13A). On the procedure:
Immunoblotting and Immunoprecipitation of Foxo1: For evaluation of global protein acetylation, cells were lysed using NE-PER Nuclear and Cytoplasmic Extraction Reagents (Thermo Fisher Scientific, Waltham, MA) and nuclear fraction was isolated according to the manufacturer's protocol. Equal amounts of nuclear protein (20 μg) were separated by 4%-12% SDS-PAGE and then transferred to nitrocellulose membranes. The membranes were probed with anti-Acetyl-Lysine antibody (Cell Signaling Technologies, Danvers, MA) followed by incubation with secondary antibody (HRP-conjugated goat anti-rabbit IgG at 1:3000 dilutions) for overnight at 4° C. Pre-stained molecular weight and magic markers were run in parallel to identify the molecular weight of proteins. For chemiluminescent detection, the membranes were treated with enhanced chemiluminescent reagent, and the signal was monitored using a Biorad Versadoc imaging system (Biorad, Hercules, CA). Same membrane was stripped with stripping buffer (Bioland Scientific, Paramount, CA) according to manufacturer's protocol and re-probed with antibody specific to histone H3 (Cell Signaling Technologies, Danvers, MA) as reference control.

With `CCOC(=O)C1=C(N)Oc2ccc(Cl)cc2C1C(C#N)C(=O)OCC` (stereo not drawn) [SC-79], the “nuclear Foxo1 levels” value in the series with Foxo1 was “reduced nuclear Foxo1 levels”.
Consider `[N-]=[N+]=CC(=O)CC[C@H](N)C(=O)O` [DON, 6-Diazo-5-oxo-L-norleucine], for which, in the series on B16-F10 melanoma, the “anti-tumor response of DON pre-treated Th1/17 cells upon ACT” value is on record as “significant attenuation of the anti-tumor response upon ACT”. The “IFNγ+IL-17+ secreting fraction” value in the series on Th1/17 cells [1] (DON 3 μM in differentiation media from day 0 (FIGS. 11E, 11F)) is listed as “reduction in IFNγ^+IL-17^+ secreting fraction”. In addition, the “viability of Th1/17 cells” value in the series on Th1/17 cells [2] is on record as “reduced by two-folds”. Moreover, the “uptake of radio labelled glutamine” value in the series on Th1/17 cells [3] is reported as “reduced the uptake of radio labelled glutamine in a dose dependent manner”. For the same compound, the “NAD+ levels in Th1/17 cells” value in the series with NAD+ is “significantly reduced NAD^+ levels”.
Take `O=C(/C=C/c1cccnc1)NCCCCC1CCN(C(=O)c2ccccc2)CC1` [FK866]: the “tumor control by inhibitor-treated Th1/17 cells upon adoptive transfer” value in series [4] is on record as “failed to exhibit potent tumor control upon adoptive transfer”. Further, the “frequency of IL17+IFNγ+ population” value in the series on Th1/17 cells [1] (FK866 10 nM in differentiation media from day 0 (FIG. 4C)) is “two-fold decrease in the frequency of IL17^+IFNγ^+ population”. Further, the IFNγ secreting fraction entry with Th1 cells is listed as “No significant difference”. In addition, in the series on NAD+, the “NAD+ levels in Th1/17 cells” value is listed as “depletion of NAD^+”. Besides, in the series on Th1/17 cells [5], the “expression of stemness-associated genes” value was “reduced expression of stemness-associated molecules such as Tcf7, Bcl6, and β-catenin”. For the same compound, the “reduced global acetylation of Th1/17 cells” value in the series with Th1/17 cells [6] was “reversed to a certain extent”.
